Assay [1] is described as follows: DPPH radical scavenging activity assay. It is filed as biochemical. The conditions noted are these: for DPPH clearance rate: n = 3, 30 min, 517 nm; for scavenging effect on DPPH (in words): FIG. 1, 7.02-7020 ppm. The source says:
The Antioxidant Activity of Bergenin Lipoic Acid Ester Measured by a DPPH Radical Scavenging Activity Assay
2,2-Diphenyl-1-picryl hydrazyl (DPPH) is an organic compound composed of a stable organic radical. In the DPPH molecule, due to the presence of multiple electron-withdrawing —NO2 and large π bonds of the benzene ring, nitrogen free radical is stabilized. Its methanol solution is purple and has a maximum absorption peak at 517 nm. After the addition of an antioxidant, DPPH captures an electron to be paired with the free electron, and the purple fades and turns into a yellow substance. The absorption at 517 nm disappears, and the degree of fading is quantitatively related to the number of electrons it captures. Based on this principle, a spectrophotometer is used to detect the change of the absorbance of the DPPH radical in the sample solution, and the ability of the sample to provide hydrogen atoms and scavenge free radicals can be measured.
Preparation of DPPH solution: measuring exact amount of 2,2-diphenyl-1-picryl hydrazyl (DPPH) and dissolving in methanol to prepare a 0.2 mmol/L DPPH solution, stored at 0° C. in dark.
Preparation of test solutions: Vc (vitamin C, positive control), bergenin lipoic acid ester (sample), bergenin (control), lipoic acid (control), and mixture of bergenin and lipoic acid (reference). The test solutions were serially diluted with acetonitrile, and four groups of controls were separately dissolved in a test tube with a certain amount of methanol to prepare the same concentration gradient as the sample.
Absorbance measurement: Take 2 mL of sample solution (Table 1, number B), add 2 mL of DPPH solution with concentration of 2*10^−4 moL/L, mix and react in the dark at room temperature for 30 min, adjust to zero with methanol, and measure at 517 nm. The absorbance Ai was simultaneously measured for the absorbance Aj of 2 mL of methanol mixed with 2 mL of the sample solution and the absorbance Ao of 2 mL of DPPH solution mixed with 2 mL of acetonitrile (The experimental results are shown in Table 2).
Clearance calculation: clearance rate (%) [1−(Ai−Aj)/Ao]*100%
A general note: DPPH is a stable violet radical that fades when it is reduced.

The conditions of assay [2]: Takahashi et al. 2003; cited from earlier work.
For assay [3] the following is noted: Takahashi et al. 2003; cited from earlier work. The source holds these as a separate data set.

Each structure is given as a SMILES string.

The values below come from US10494377B1, “Bergenin lipoic acid ester with antioxidant activity and a method of preparing the same” (SHAANXI UNIVERSITY OF SCIENCE AND TECHNOLOGY, priority 2018, dated 2019).

Consider `O=C1O[C@H]([C@@H](O)CO)C(O)=C1O` [Vc, Vitamin C], for which the DPPH clearance rate in assay [1] (7.02 ppm) was 82.01%; in assay [1] (140.4 ppm), 95.17%; in assay [1] (702 ppm), 95.70%; in assay [1] (2808 ppm) it was 99.90%; in assay [1] (7020 ppm), 99.90%.
Consider `COc1c(O)cc2c(c1O)C1OC(COC(=O)CCCCC3CCSS3)C(O)C(O)C1OC2=O` (stereo not shown) [B, Bergenin lipoic acid ester], for which the DPPH clearance rate is 27.56% in assay [1] (7.02 ppm); 60.83% in assay [1] (140.4 ppm); 76.34% in assay [1] (702 ppm); 94.92% in assay [1] (2808 ppm); 97.64% in assay [1] (7020 ppm). In addition, the “scavenging effect on DPPH (in words)” value in assay [1] is on record as “better than E”; in assay [1] (listed as bergenin lipoic acid ester), “significant scavenging effect on DPPH in a concentration-dependent manner”. Moreover, in assay [1] (concentration above 2808 ppm), the “scavenging ability compared with Vc (in words)” value is listed as “close to the scavenging ability of Vc”.
Take `O=C(O)CCCCC1CCSS1` (stereo not shown) [D, Lipoic acid]: the DPPH clearance rate in assay [1] (7.02 ppm) came to 20.40%; in assay [1] (140.4 ppm), 28.64%; in assay [1] (702 ppm), 39.66%; in assay [1] (2808 ppm) it was 60.54%; in assay [1] (7020 ppm) it was 82.95%.
With `COc1c(O)cc2c(c1O)[C@@H]1O[C@H](CO)[C@@H](O)[C@H](O)[C@H]1OC2=O` [C, Bergenin], the DPPH clearance rate worked out at 15.57% in assay [1] (7.02 ppm); 19.79% in assay [1] (140.4 ppm); 30.98% in assay [1] (702 ppm); 54.56% in assay [1] (2808 ppm); 90.01% in assay [1] (7020 ppm). For the same compound, the “scavenging effect on superoxide anions (in words)” value in assay [2] is recorded as “good scavenging effect”. Also, in assay [3], the “scavenging effect on DPPH free radicals (in words)” value is recorded as “good scavenging effect”.
